Measurements: article PMC5218480 (PLoS ONE, 2017)

Tested on: MV-4-11 cells
Assay: Gene expression microarray analysis (Affymetrix PrimeView) and GSEA
Format: cell-based, human
Design: RFU PODN (11730768_x_at) / Fold change /veh PODN (11730768_x_at) / RFU LINC00158 (11744669_a_at) / Fold change /veh LINC00158 (11744669_a_at) / RFU DUSP10 (11751237_a_at) / Fold change /veh DUSP10 (11751237_a_at) / RFU ID3 (11757404_x_at) / Fold change /veh ID3 (11757404_x_at) / RFU PLEKHG5 (11737974_s_at) / Fold change /veh PLEKHG5 (11737974_s_at) / RFU LRRC4B (11730491_at) / Fold change /veh LRRC4B (11730491_at) / RFU GIMAP4 (11747438_a_at) / Fold change /veh GIMAP4 (11747438_a_at) / RFU KRT8 (11758183_x_at) / Fold change /veh KRT8 (11758183_x_at) / RFU CNN1 (11734310_a_at) / Fold change /veh CNN1 (11734310_a_at) / RFU VPS37D (11726825_at) / Fold change /veh VPS37D (11726825_at) / RFU C10orf10 (11716522_x_at) / Fold change /veh C10orf10 (11716522_x_at) / RFU KIR2DL2 /// KIR2DL4 /// KIR2DL5A /// KIR2DL5B /// KIR2DS1 /// KIR2DS2 /// KIR2DS3 /// KIR2DS4 /// KIR3DL3 /// KIR3DL3 /// KIR3DS1 (11738374_at) / Fold change /veh KIR2DL2 /// KIR2DL4 /// KIR2DL5A /// KIR2DL5B /// KIR2DS1 /// KIR2DS2 /// KIR2DS3 /// KIR2DS4 /// KIR3DL3 /// KIR3DL3 /// KIR3DS1 (11738374_at) / RFU C1QL1 (11718748_at) / Fold change /veh C1QL1 (11718748_at) / RFU TMPRSS4 (11747572_a_at) / Fold change /veh TMPRSS4 (11747572_a_at) / RFU HAMP (11756126_x_at) / Fold change /veh HAMP (11756126_x_at) / RFU RNFT2 (11725882_a_at) / Fold change /veh RNFT2 (11725882_a_at) / RFU NR4A2 (11747474_a_at) / Fold change /veh NR4A2 (11747474_a_at) / RFU ABCC12 (11746883_a_at) / Fold change /veh ABCC12 (11746883_a_at) / RFU TMEM136 (11760407_x_at) / Fold change /veh TMEM136 (11760407_x_at) / RFU CLDN22 /// WWC2 (11732394_at) / Fold change /veh CLDN22 /// WWC2 (11732394_at) / RFU HLA-DPB1 (11760878_x_at) / Fold change /veh HLA-DPB1 (11760878_x_at) / RFU SPINT1 (11716480_a_at) / Fold change /veh SPINT1 (11716480_a_at) / RFU GAP43 (11754022_s_at) / Fold change /veh GAP43 (11754022_s_at) / RFU A4GNT (11735810_at) / Fold change /veh A4GNT (11735810_at) / RFU PRB3 (11715151_x_at) / Fold change /veh PRB3 (11715151_x_at) / RFU TUBB4B (11761932_at) / Fold change /veh TUBB4B (11761932_at) / RFU CAPN14 (11732068_a_at) / Fold change /veh CAPN14 (11732068_a_at) / RFU TMCC2 (11721928_a_at) / Fold change /veh TMCC2 (11721928_a_at) / RFU IRGQ (11745062_a_at) / Fold change /veh IRGQ (11745062_a_at) / RFU FAM174B (11720279_a_at) / Fold change /veh FAM174B (11720279_a_at) / RFU TMPRSS4 (11748680_a_at) / Fold change /veh TMPRSS4 (11748680_a_at) / RFU FAM212B (11763350_a_at) / Fold change /veh FAM212B (11763350_a_at) / RFU PLEKHG5 (11743358_a_at) / Fold change /veh PLEKHG5 (11743358_a_at) / RFU ZSCAN30 (11745921_a_at) / Fold change /veh ZSCAN30 (11745921_a_at) / RFU CMKLR1 (11741424_a_at) / Fold change /veh CMKLR1 (11741424_a_at) / RFU LOC101060620 /// MAPK8IP1 (11723275_at) / Fold change /veh LOC101060620 /// MAPK8IP1 (11723275_at) / RFU SPTSSB (11747773_x_at) / Fold change /veh SPTSSB (11747773_x_at) / RFU PRSS12 (11739890_at) / Fold change /veh PRSS12 (11739890_at) / RFU BIN1 (11741810_x_at) / Fold change /veh BIN1 (11741810_x_at) / RFU WNT11 (11732464_a_at) / Fold change /veh WNT11 (11732464_a_at) / RFU C10orf10 (11716521_a_at) / Fold change /veh C10orf10 (11716521_a_at) / RFU C5orf56 (11738089_at) / Fold change /veh C5orf56 (11738089_at) / RFU CYB561 (11721691_x_at) / Fold change /veh CYB561 (11721691_x_at) / RFU ANKRD19P (11752326_a_at) / Fold change /veh ANKRD19P (11752326_a_at) / RFU OR2T12 /// OR2T33 /// OR2T8 (11738714_s_at) / Fold change /veh OR2T12 /// OR2T33 /// OR2T8 (11738714_s_at) / RFU VCAN (11748164_a_at) / Fold change /veh VCAN (11748164_a_at) / RFU JSRP1 (11732532_at) / Fold change /veh JSRP1 (11732532_at) / RFU KRTAP10-11 (11738290_x_at) / Fold change /veh KRTAP10-11 (11738290_x_at) / RFU MYO3A (11730013_a_at) / Fold change /veh MYO3A (11730013_a_at) / RFU EBF3 (11725865_a_at) / Fold change /veh EBF3 (11725865_a_at) / RFU CAMK2N1 (11719241_x_at) / Fold change /veh CAMK2N1 (11719241_x_at) / RFU C5orf56 (11738088_a_at) / Fold change /veh C5orf56 (11738088_a_at) / RFU OLFML3 (11715873_a_at) / Fold change /veh OLFML3 (11715873_a_at) / RFU LOC100653217 /// NTM (11731650_a_at) / Fold change /veh LOC100653217 /// NTM (11731650_a_at) / RFU MAPK11 (11762145_a_at) / Fold change /veh MAPK11 (11762145_a_at) / RFU FIZ1 (11724087_x_at) / Fold change /veh FIZ1 (11724087_x_at) / RFU OASL (11726364_x_at) / Fold change /veh OASL (11726364_x_at) / RFU SOX15 (11748057_x_at) / Fold change /veh SOX15 (11748057_x_at) / RFU CD79A (11719716_a_at) / Fold change /veh CD79A (11719716_a_at) / RFU HIST1H1D (11736915_at) / Fold change /veh HIST1H1D (11736915_at) / RFU CASKIN2 (11723855_a_at) / Fold change /veh CASKIN2 (11723855_a_at) / RFU LOC730098 (11760151_x_at) / Fold change /veh LOC730098 (11760151_x_at) / RFU OR4N2 (11742367_at) / Fold change /veh OR4N2 (11742367_at) / RFU PRRT2 (11749266_a_at) / Fold change /veh PRRT2 (11749266_a_at) / RFU SNX32 (11753110_a_at) / Fold change /veh SNX32 (11753110_a_at) / RFU CDHR5 (11726645_a_at) / Fold change /veh CDHR5 (11726645_a_at) / RFU RCAN1 (11760418_a_at) / Fold change /veh RCAN1 (11760418_a_at) / RFU FAM167A (11723789_a_at) / Fold change /veh FAM167A (11723789_a_at) / RFU FAM26E (11764081_at) / Fold change /veh FAM26E (11764081_at) / RFU ISYNA1 (11749810_s_at) / Fold change /veh ISYNA1 (11749810_s_at) / RFU ACY1 (11761880_at) / Fold change /veh ACY1 (11761880_at) / RFU 11764098_at / Fold change /veh 11764098_at / RFU SAMD14 (11745864_x_at) / Fold change /veh SAMD14 (11745864_x_at) / RFU NPB (11741838_a_at) / Fold change /veh NPB (11741838_a_at) / RFU TMPRSS6 (11731388_a_at) / Fold change /veh TMPRSS6 (11731388_a_at) / RFU KRTAP10-2 (11738614_at) / Fold change /veh KRTAP10-2 (11738614_at) / RFU ARHGAP8 /// PRR5-ARHGAP8 (11727945_x_at) / Fold change /veh ARHGAP8 /// PRR5-ARHGAP8 (11727945_x_at) / RFU KRTAP5-7 /// NADSYN1 (11734609_at) / Fold change /veh KRTAP5-7 /// NADSYN1 (11734609_at) / RFU RASL12 (11751679_a_at) / Fold change /veh RASL12 (11751679_a_at) / RFU CDKN2B (11736163_a_at) / Fold change /veh CDKN2B (11736163_a_at) / RFU PRF1 (11729649_at) / Fold change /veh PRF1 (11729649_at) / RFU, ZNF638 /// ZNF638-IT1 / Fold change vs veh, ZNF638 /// ZNF638-IT1 / RFU, PANK3 / Fold change vs veh, PANK3 / RFU, SH3YL1 / Fold change vs veh, SH3YL1 / RFU, ZEB2 / Fold change vs veh, ZEB2 / RFU, NRIP1 / Fold change vs veh, NRIP1 / RFU, PTTG1IP / Fold change vs veh, PTTG1IP / RFU, CAPN2 / Fold change vs veh, CAPN2 / RFU, MED14 / Fold change vs veh, MED14 / RFU, SNORA58 / Fold change vs veh, SNORA58 / RFU, C1orf63 / Fold change vs veh, C1orf63 / RFU, LRRFIP1 / Fold change vs veh, LRRFIP1 / RFU, NDUFAF7 / Fold change vs veh, NDUFAF7 / RFU, SLC12A2 / Fold change vs veh, SLC12A2 / RFU, IBTK / Fold change vs veh, IBTK / RFU, ESF1 / Fold change vs veh, ESF1 / Fold change vs veh, TMEM50B / RFU, TAOK1 / Fold change vs veh, TAOK1 / RFU, ACBD3 / Fold change vs veh, ACBD3 / RFU, TMA16 / Fold change vs veh, TMA16 / RFU, RWDD3 / Fold change vs veh, RWDD3 / RFU, BCAT1 / Fold change vs veh, BCAT1 / RFU, EDEM3 / Fold change vs veh, EDEM3 / RFU, TMEM33 / Fold change vs veh, TMEM33 / RFU, WDR75 / Fold change vs veh, WDR75 / RFU, AHCTF1 / Fold change vs veh, AHCTF1 / RFU, TFRC / Fold change vs veh, TFRC / RFU, ZDHHC17 / Fold change vs veh, ZDHHC17 / RFU, NOM1 / Fold change vs veh, NOM1 / RFU, ARL8B / Fold change vs veh, ARL8B / RFU, ZBTB11 / Fold change vs veh, ZBTB11 / RFU, TAMM41 / Fold change vs veh, TAMM41 / RFU, KIAA1704 /// LOC100996395 / Fold change vs veh, KIAA1704 /// LOC100996395 / RFU, ING1 / Fold change vs veh, ING1 / RFU, TRMT61B / Fold change vs veh, TRMT61B / RFU, FUBP3 / Fold change vs veh, FUBP3 / RFU, TP53 / Fold change vs veh, TP53 / RFU, TNKS2 / Fold change vs veh, TNKS2 / RFU, ZFP14 / Fold change vs veh, ZFP14 / RFU, ACTR2 / Fold change vs veh, ACTR2 / RFU, PPP3R1 / Fold change vs veh, PPP3R1 / RFU, PIK3R1 / Fold change vs veh, PIK3R1 / RFU, HNRNPA1 / Fold change vs veh, HNRNPA1 / RFU, RNF170 / Fold change vs veh, RNF170 / RFU, ZNF28 / Fold change vs veh, ZNF28 / RFU, RNGTT / Fold change vs veh, RNGTT / RFU, OGT / Fold change vs veh, OGT / RFU, BRD1 / Fold change vs veh, BRD1 / RFU, MARS / Fold change vs veh, MARS / RFU, ZNF655 / Fold change vs veh, ZNF655 / RFU, FAHD1 / Fold change vs veh, FAHD1 / RFU, BDP1 / Fold change vs veh, BDP1 / RFU, LRRCC1 / Fold change vs veh, LRRCC1 / RFU, ARID1A / Fold change vs veh, ARID1A / RFU, ZNF146 / Fold change vs veh, ZNF146 / RFU, ZNF330 / Fold change vs veh, ZNF330 / RFU, GPN3 / Fold change vs veh, GPN3 / RFU, C9orf123 / Fold change vs veh, C9orf123 / RFU, N4BP2L2 / Fold change vs veh, N4BP2L2 / RFU, ARFIP1 / Fold change vs veh, ARFIP1 / RFU, FAM179B / Fold change vs veh, FAM179B / RFU, BCL10 / Fold change vs veh, BCL10 / RFU, UHRF1BP1L / Fold change vs veh, UHRF1BP1L / RFU, BET1 / Fold change vs veh, BET1 / RFU, CNOT2 / Fold change vs veh, CNOT2 / RFU, ZNF268 / Fold change vs veh, ZNF268 / Fold change vs veh, ZNF507 / RFU, DGCR2 / Fold change vs veh, DGCR2 / RFU, WDSUB1 / Fold change vs veh, WDSUB1 / Fold change vs veh, HSP90B1 /// MIR3652 / RFU, ADSS / Fold change vs veh, ADSS / RFU, GK / Fold change vs veh, GK / RFU, ZNF148 / Fold change vs veh, ZNF148 / RFU, TAF9 / Fold change vs veh, TAF9 / RFU, SLC1A5 / Fold change vs veh, SLC1A5 / RFU, SLMO2 / Fold change vs veh, SLMO2 / RFU, ABCC4 / Fold change vs veh, ABCC4 / RFU, LOC101060439 /// RAP1B / Fold change vs veh, LOC101060439 /// RAP1B / RFU, RFX7 / Fold change vs veh, RFX7 / RFU, GTPBP10 / Fold change vs veh, GTPBP10 / RFU, CNEP1R1 / Fold change vs veh, CNEP1R1 / RFU, BIVM-ERCC5 /// ERCC5 / Fold change vs veh, BIVM-ERCC5 /// ERCC5 / RFU, ILF3 / Fold change vs veh, ILF3 / RFU 11762660_at / Fold change /veh 11762660_at / RFU VCAN (11757783_s_at) / Fold change /veh VCAN (11757783_s_at) / RFU DDX43 (11728927_at) / Fold change /veh DDX43 (11728927_at) / RFU KRT8 (11758188_x_at) / Fold change /veh KRT8 (11758188_x_at) / RFU NKD1 (11759106_at) / Fold change /veh NKD1 (11759106_at) / RFU SRD5A1 (11742802_a_at) / Fold change /veh SRD5A1 (11742802_a_at) / RFU TPSAB1 /// TPSB2 (11721975_s_at) / Fold change /veh TPSAB1 /// TPSB2 (11721975_s_at) / RFU GSTM3 (11746129_a_at) / Fold change /veh GSTM3 (11746129_a_at) / RFU IL23R (11737362_x_at) / Fold change /veh IL23R (11737362_x_at) / RFU TMEM51 (11727254_a_at) / Fold change /veh TMEM51 (11727254_a_at) / RFU PIWIL2 (11732686_x_at) / Fold change /veh PIWIL2 (11732686_x_at) / RFU ORM1 (11744905_x_at) / Fold change /veh ORM1 (11744905_x_at) / RFU CCDC152 (11743942_at) / Fold change /veh CCDC152 (11743942_at) / RFU ECM1 (11717891_a_at) / Fold change /veh ECM1 (11717891_a_at) / RFU IL23R (11748794_a_at) / Fold change /veh IL23R (11748794_a_at) / RFU TNFAIP8L3 (11732012_x_at) / Fold change /veh TNFAIP8L3 (11732012_x_at) / RFU MBOAT4 (11741988_at) / Fold change /veh MBOAT4 (11741988_at) / RFU 11764193_at / Fold change /veh 11764193_at / RFU TMEM53 (11763286_at) / Fold change /veh TMEM53 (11763286_at) / RFU MAGEB2 (11727129_at) / Fold change /veh MAGEB2 (11727129_at) / RFU TMEM200A (11744735_a_at) / Fold change /veh TMEM200A (11744735_a_at) / RFU CCDC152 (11751479_a_at) / Fold change /veh CCDC152 (11751479_a_at) / RFU FAM211A (11726209_a_at) / Fold change /veh FAM211A (11726209_a_at) / RFU RGS16 (11746705_a_at) / Fold change /veh RGS16 (11746705_a_at) / RFU VCAN (11755009_s_at) / Fold change /veh VCAN (11755009_s_at) / RFU RHOB (11743442_s_at) / Fold change /veh RHOB (11743442_s_at) / RFU RGS16 (11720943_a_at) / Fold change /veh RGS16 (11720943_a_at) / RFU RGS16 (11720944_at) / Fold change /veh RGS16 (11720944_at) / RFU, VPS4B / Fold change vs veh, VPS4B / RFU, CREB1 / Fold change vs veh, CREB1 / RFU, DNAJC13 / Fold change vs veh, DNAJC13 / RFU, GNAQ / Fold change vs veh, GNAQ / RFU, CDK5R1 / Fold change vs veh, CDK5R1 / RFU, ZRANB3 / Fold change vs veh, ZRANB3 / RFU, CUL4A / Fold change vs veh, CUL4A / RFU, CCNY / Fold change vs veh, CCNY / RFU, UFL1 / Fold change vs veh, UFL1 / RFU, COG3 / Fold change vs veh, COG3 / RFU, DIAPH2 / Fold change vs veh, DIAPH2 / RFU, SKA2 / Fold change vs veh, SKA2 / RFU, AFF3 / Fold change vs veh, AFF3 / RFU, LMF1 / Fold change vs veh, LMF1 / RFU, IPO11 / Fold change vs veh, IPO11 / RFU, DFFB / Fold change vs veh, DFFB / RFU, FOXP1 / Fold change vs veh, FOXP1 / RFU, CARD8 / Fold change vs veh, CARD8 / RFU, STRN3 / Fold change vs veh, STRN3 / RFU, ADK / Fold change vs veh, ADK / RFU, RASSF2 / Fold change vs veh, RASSF2 / RFU, WIPF1 / Fold change vs veh, WIPF1 / RFU, LARP1B / Fold change vs veh, LARP1B / RFU, RASA1 / Fold change vs veh, RASA1 / RFU, RB1 / Fold change vs veh, RB1 / RFU, PPFIA1 / Fold change vs veh, PPFIA1 / RFU, MAT2A / Fold change vs veh, MAT2A / RFU, CCT5 / Fold change vs veh, CCT5 / RFU, WDR92 / Fold change vs veh, WDR92 / RFU, CUX1 / Fold change vs veh, CUX1 / RFU, TTC7A / Fold change vs veh, TTC7A / RFU, TMEM135 / Fold change vs veh, TMEM135 / RFU, DEPTOR / Fold change vs veh, DEPTOR / RFU, CPM / Fold change vs veh, CPM / RFU, DNAJB6 / Fold change vs veh, DNAJB6 / RFU, CACNA2D3 / Fold change vs veh, CACNA2D3 / RFU, DTX4 / Fold change vs veh, DTX4 / RFU, TFCP2 / Fold change vs veh, TFCP2 / RFU, GMCL1 /// GMCL1P1 / Fold change vs veh, GMCL1 /// GMCL1P1 / RFU, AEBP2 / Fold change vs veh, AEBP2 / RFU, SNHG1 /// SNORD22 /// SNORD25 /// SNORD26 /// SNORD27 /// SNORD28 /// SNORD29 /// SNORD31 / Fold change vs veh, SNHG1 /// SNORD22 /// SNORD25 /// SNORD26 /// SNORD27 /// SNORD28 /// SNORD29 /// SNORD31 / Fold change (Aza/veh), C12orf56 (ProbeSet 11735607_a_at) / Fold change (ACY-1035/veh), C12orf56 (ProbeSet 11735607_a_at) / Fold change (Aza/veh), FGFR1OP (ProbeSet 11751329_s_at) / Fold change (ACY-1035/veh), FGFR1OP (ProbeSet 11751329_s_at) / Fold change (Aza/veh), VPS36 (ProbeSet 11739960_a_at) / Fold change (ACY-1035/veh), VPS36 (ProbeSet 11739960_a_at) / RFU SYPL1 (11715823_x_at) / Fold change /veh SYPL1 (11715823_x_at) / RFU IGFBP7 (11715501_s_at) / Fold change /veh IGFBP7 (11715501_s_at) / RFU REEP3 (11722064_at) / Fold change /veh REEP3 (11722064_at) / RFU IGLL1 (11728026_x_at) / Fold change /veh IGLL1 (11728026_x_at): dose or concentration left out as unconfirmed
Conditions: ProbeSet 11716891_at; LIST B

Structure (SMILES): Nc1ccc(-c2cccs2)cc1NC(=O)c1ccc2c(c1)cc(C1CC1)n2CCN1CCOCC1 [ACY-1035]
- RFU, C9orf123: 39.54 RFU
